# Read-outs that look alike come from different tables or passages of the source.
# How the values were obtained:
# [1] = system: rat hippocampal neurons; test: Current-clamp recording of cultured hippocampal neurons; assay type: cell-based
# Procedure: For hippocampal neuronal cultures, Sprague-Dawley rat embryos (E18) were removed by caesarian section and their hippocampi were dissected out. The tissue was digested with papain for 20 min, triturated to a single-cell suspension, and plated at a density of 40,000 cells per ml on a substrate of bovine collagen type IV and 100 µg/ml poly-L-lysine in 13 mm diameter glass coverslips of a 24-multiwell plate. The culture medium consisted of Modified Eagle's Medium containing 5% horse serum (Biological Industries, Beit HaEmek, Israel), B-27 neuronal supplement (Invitrogen, Carlsbad, CA), 100 U/ml penicillin, 100 µg/ml streptomycin, and 2 mM glutamine. D-glucose was supplemented to a final concentration of 6 g/l. Cytosine-1-D-arabinofuranoside (5 µM) was added after 5 days to arrest glial cell proliferation. For electrophysiological recordings hippocampal neurons were used at 10–14 days in culture. All cultures were maintained at 37°C in humidified air containing 5% CO2.
# For current-clamp recordings in primary cultured neurons, the patch pipettes were filled with (in mM): 135 KCl, 1 K2ATP, 1 MgATP, 2 EGTA, 1.1 CaCl2, 5 glucose, 10 HEPES, adjusted with KOH at pH 7.4 (315 mOsm). […] A liquid junction potential of about −15.6 mV was measured between the intracellular and saline solutions and corrected on-line. […]
# [2] = system: COX enzymes (CT26 mouse colon adenocarcinoma cells); test: COX inhibition, PGE2 production in CT26 cells; assay type: cell-based
# Text: In addition, the aromatic rings of the diphenylamine moiety were substituted with different electron donating or withdrawing groups. In a first screen, two parameters were checked: (a) the non-selective inhibition of COX-1/COX-2 enzyme activities, measured by the production of PGE2 in cultured mouse colon adenocarcinoma (CT26) and mouse Lewis lung carcinoma cells (D122) cells; (b) the M-channel activity, measured by the heterologous coexpression of Kv7.2 and Kv7.3 subunits in Chinese hamster ovary (CHO) cells.
# Mouse colon adenocarcinoma CT26 and mouse Lewis lung carcinoma D122 cells were grown in DMEM (D122) or RPMI (CT26) supplemented with 10% fetal calf serum, 4% glutamine, 1% penicillin-streptomycin-nystatin and 3% non essential amino acids (D122) and maintained in a humidified 37°C incubator with 5% CO2. For the COX assays, cells were grown onto 24 multiwell plates. Before the assay, cells were washed with serum-free medium; then tested compounds were added to the medium and incubated for 30 min at 37°C after which 30 µM arachidonic acid was added and incubated for additional 20 min. At the end of the incubations, 10 µM indomethacin was added to stop the reaction and medium was transferred to another 24 multiwell plate for measuring PGE2 production by radioimmunoassay (DuPont-NEN; Boston, MA) according to manufacturer protocol. Protein determination was assayed on scraped cells and was used to normalize the amount of PGE2 production. Assays with purified ovine COX-1 and human recombinant COX-2 were performed using the COX inhibitor screening assay (Cayman chemical company, Ann Arbor, MI), according to manufacturer protocol.
compound,measurement,setting,value
O=C(Cc1cc([N+](=O)[O-])ccc1Nc1c(Cl)cccc1Cl)OCCO [Compound 15],"number of evoked action potentials, hippocampal neurons","[1]; 25 µM, 75–200 pA for 400 ms",2.1±0.5
same,hyperpolarization of hippocampal neurons,[1]; exposed to compound,−8.5 mV
same,IC50,"[2]; average of two experiments in triplicate, read-out: COX inhibition (IC50, µM) CT26",0.048 µM
same,IC50,"[2]; read-out: COX inhibition IC50, typical experiment (Figure 1)",0.069 µM

# Source: article PMC2131780, “A Tale of Switched Functions: From Cyclooxygenase Inhibition to M-Channel Modulation in New Diphenylamine Derivatives” (PLoS ONE, 2007)
